# Measurements taken from ChEMBL document CHEMBL1255175, “Synthesis, antimicrobial, and mosquito larvicidal activity of 1-aryl-4-methyl-3,6-bis-(5-methylisoxazol-3-yl)-2-thioxo-2,3,6,10b-tetrahydro-1H-pyrimido[5,4-c]quinolin-5-ones” (2010).
# Tested on: Bacillus subtilis
# Assay: Antimicrobial activity against Bacillus subtilis MTCC 441
# Format: functional
# Settings: not given
row,SMILES,MIC [µg/mL]
1,CC1=C2C(=O)N(c3cc(C)on3)c3ccccc3C2N(c2ccc(Br)cc2)C(=S)N1c1cc(C)on1 (stereo unspecified),6
2,CC1=C2C(=O)N(c3cc(C)on3)c3ccccc3C2N(c2ccc(C)cc2)C(=S)N1c1cc(C)on1 (stereo unspecified),16
3,CC1=C2C(=O)N(c3cc(C)on3)c3ccccc3C2N(c2ccc(Cl)cc2)C(=S)N1c1cc(C)on1 (stereo unspecified),16
4,COc1cccc(N2C(=S)N(c3cc(C)on3)C(C)=C3C(=O)N(c4cc(C)on4)c4ccccc4C32)c1 (stereo unspecified),18

# Tested on: Lysinibacillus sphaericus
# Assay: Antimicrobial activity against Bacillus sphaericus MTCC 511
# Format: functional
# Settings: not given
row,SMILES,MIC [µg/mL]
1,CC1=C2C(=O)N(c3cc(C)on3)c3ccccc3C2N(c2ccc(Br)cc2)C(=S)N1c1cc(C)on1 (stereo unspecified),8
2,CC1=C2C(=O)N(c3cc(C)on3)c3ccccc3C2N(c2ccc(C)cc2)C(=S)N1c1cc(C)on1 (stereo unspecified),11
3,CC1=C2C(=O)N(c3cc(C)on3)c3ccccc3C2N(c2ccc(Cl)cc2)C(=S)N1c1cc(C)on1 (stereo unspecified),15
4,COc1cccc(N2C(=S)N(c3cc(C)on3)C(C)=C3C(=O)N(c4cc(C)on4)c4ccccc4C32)c1 (stereo unspecified),18

# Tested on: Staphylococcus aureus
# Assay: Antimicrobial activity against Staphylococcus aureus MTCC 96
# Format: functional
# Settings: not given
row,SMILES,MIC [µg/mL]
1,CC1=C2C(=O)N(c3cc(C)on3)c3ccccc3C2N(c2ccc(Br)cc2)C(=S)N1c1cc(C)on1 (stereo unspecified),9
2,CC1=C2C(=O)N(c3cc(C)on3)c3ccccc3C2N(c2ccc(C)cc2)C(=S)N1c1cc(C)on1 (stereo unspecified),10
3,CC1=C2C(=O)N(c3cc(C)on3)c3ccccc3C2N(c2ccc(Cl)cc2)C(=S)N1c1cc(C)on1 (stereo unspecified),15
4,COc1cccc(N2C(=S)N(c3cc(C)on3)C(C)=C3C(=O)N(c4cc(C)on4)c4ccccc4C32)c1 (stereo unspecified),12

# Tested on: Pseudomonas aeruginosa
# Assay: Antimicrobial activity against Pseudomonas aeruginosa MTCC 741
# Format: functional
# Settings: not given
row,SMILES,MIC [µg/mL]
1,CC1=C2C(=O)N(c3cc(C)on3)c3ccccc3C2N(c2ccc(Br)cc2)C(=S)N1c1cc(C)on1 (stereo unspecified),9
2,CC1=C2C(=O)N(c3cc(C)on3)c3ccccc3C2N(c2ccc(C)cc2)C(=S)N1c1cc(C)on1 (stereo unspecified),10
3,CC1=C2C(=O)N(c3cc(C)on3)c3ccccc3C2N(c2ccc(Cl)cc2)C(=S)N1c1cc(C)on1 (stereo unspecified),20
4,COc1cccc(N2C(=S)N(c3cc(C)on3)C(C)=C3C(=O)N(c4cc(C)on4)c4ccccc4C32)c1 (stereo unspecified),8

# Tested on: Klebsiella aerogenes
# Assay: Antimicrobial activity against Klebsiella aerogenes MTCC 39
# Format: functional
# Settings: not given
row,SMILES,MIC [µg/mL]
1,CC1=C2C(=O)N(c3cc(C)on3)c3ccccc3C2N(c2ccc(Br)cc2)C(=S)N1c1cc(C)on1 (stereo unspecified),7
2,CC1=C2C(=O)N(c3cc(C)on3)c3ccccc3C2N(c2ccc(C)cc2)C(=S)N1c1cc(C)on1 (stereo unspecified),8
3,CC1=C2C(=O)N(c3cc(C)on3)c3ccccc3C2N(c2ccc(Cl)cc2)C(=S)N1c1cc(C)on1 (stereo unspecified),15
4,COc1cccc(N2C(=S)N(c3cc(C)on3)C(C)=C3C(=O)N(c4cc(C)on4)c4ccccc4C32)c1 (stereo unspecified),13

# Tested on: Chromobacterium violaceum
# Assay: Antimicrobial activity against Chromobacterium violaceum MTCC 2656
# Format: functional
# Settings: not given
row,SMILES,MIC [µg/mL]
1,CC1=C2C(=O)N(c3cc(C)on3)c3ccccc3C2N(c2ccc(Br)cc2)C(=S)N1c1cc(C)on1 (stereo unspecified),5
2,CC1=C2C(=O)N(c3cc(C)on3)c3ccccc3C2N(c2ccc(C)cc2)C(=S)N1c1cc(C)on1 (stereo unspecified),6
3,CC1=C2C(=O)N(c3cc(C)on3)c3ccccc3C2N(c2ccc(Cl)cc2)C(=S)N1c1cc(C)on1 (stereo unspecified),13
4,COc1cccc(N2C(=S)N(c3cc(C)on3)C(C)=C3C(=O)N(c4cc(C)on4)c4ccccc4C32)c1 (stereo unspecified),11

# Tested on: Aspergillus niger
# Assay: Antifungal activity against Aspergillus niger MTCC 282 at 30 ug/ml
# Format: functional
# Settings: read-out: DIZ
row,SMILES,zone of inhibition at 30 µg/mL [mm]
1,CC1=C2C(=O)N(c3cc(C)on3)c3ccccc3C2N(c2ccc(Br)cc2)C(=S)N1c1cc(C)on1 (stereo unspecified),40
2,CC1=C2C(=O)N(c3cc(C)on3)c3ccccc3C2N(c2ccc(C)cc2)C(=S)N1c1cc(C)on1 (stereo unspecified),40
3,CC1=C2C(=O)N(c3cc(C)on3)c3ccccc3C2N(c2ccc(Cl)cc2)C(=S)N1c1cc(C)on1 (stereo unspecified),25
4,COc1cccc(N2C(=S)N(c3cc(C)on3)C(C)=C3C(=O)N(c4cc(C)on4)c4ccccc4C32)c1 (stereo unspecified),20

# Tested on: Aspergillus niger
# Assay: Antifungal activity against Aspergillus niger MTCC 282 at 100 ug/ml
# Format: functional
# Settings: read-out: DIZ
row,SMILES,zone of inhibition at 100 µg/mL [mm]
1,Clc1ccccc1C(c1ccccc1)(c1ccccc1)n1ccnc1 [CLOTRIMAZOLE],26
2,CC1=C2C(=O)N(c3cc(C)on3)c3ccccc3C2N(c2ccc(Br)cc2)C(=S)N1c1cc(C)on1 (stereo unspecified),50
3,CC1=C2C(=O)N(c3cc(C)on3)c3ccccc3C2N(c2ccc(C)cc2)C(=S)N1c1cc(C)on1 (stereo unspecified),60
4,CC1=C2C(=O)N(c3cc(C)on3)c3ccccc3C2N(c2ccc(Cl)cc2)C(=S)N1c1cc(C)on1 (stereo unspecified),40
5,COc1cccc(N2C(=S)N(c3cc(C)on3)C(C)=C3C(=O)N(c4cc(C)on4)c4ccccc4C32)c1 (stereo unspecified),40

# Tested on: not listed separately
# Assay: Antifungal activity against Chrysosporium tropicum MTCC 2821 at 30 ug/ml
# Format: functional
# Settings: not given
row,SMILES,inhibition zone (IZ) [mm]
1,CC1=C2C(=O)N(c3cc(C)on3)c3ccccc3C2N(c2ccc(Br)cc2)C(=S)N1c1cc(C)on1 (stereo unspecified),25
2,CC1=C2C(=O)N(c3cc(C)on3)c3ccccc3C2N(c2ccc(C)cc2)C(=S)N1c1cc(C)on1 (stereo unspecified),40
3,CC1=C2C(=O)N(c3cc(C)on3)c3ccccc3C2N(c2ccc(Cl)cc2)C(=S)N1c1cc(C)on1 (stereo unspecified),30
4,COc1cccc(N2C(=S)N(c3cc(C)on3)C(C)=C3C(=O)N(c4cc(C)on4)c4ccccc4C32)c1 (stereo unspecified),28

# Tested on: not listed separately
# Assay: Antifungal activity against Chrysosporium tropicum MTCC 2821 at 100 ug/ml
# Format: functional
# Settings: not given
row,SMILES,inhibition zone (IZ) [mm]
1,Clc1ccccc1C(c1ccccc1)(c1ccccc1)n1ccnc1 [CLOTRIMAZOLE],30
2,CC1=C2C(=O)N(c3cc(C)on3)c3ccccc3C2N(c2ccc(Br)cc2)C(=S)N1c1cc(C)on1 (stereo unspecified),45
3,CC1=C2C(=O)N(c3cc(C)on3)c3ccccc3C2N(c2ccc(Cl)cc2)C(=S)N1c1cc(C)on1 (stereo unspecified),45
4,COc1cccc(N2C(=S)N(c3cc(C)on3)C(C)=C3C(=O)N(c4cc(C)on4)c4ccccc4C32)c1 (stereo unspecified),40

# Tested on: Rhizopus arrhizus
# Assay: Antifungal activity against Rhizopus oryzae MTCC 262 at 30 ug/ml
# Format: functional
# Settings: read-out: DIZ
row,SMILES,zone of inhibition at 30 µg/mL [mm]
1,CC1=C2C(=O)N(c3cc(C)on3)c3ccccc3C2N(c2ccc(Br)cc2)C(=S)N1c1cc(C)on1 (stereo unspecified),39
2,CC1=C2C(=O)N(c3cc(C)on3)c3ccccc3C2N(c2ccc(C)cc2)C(=S)N1c1cc(C)on1 (stereo unspecified),45
3,CC1=C2C(=O)N(c3cc(C)on3)c3ccccc3C2N(c2ccc(Cl)cc2)C(=S)N1c1cc(C)on1 (stereo unspecified),40
4,COc1cccc(N2C(=S)N(c3cc(C)on3)C(C)=C3C(=O)N(c4cc(C)on4)c4ccccc4C32)c1 (stereo unspecified),40

# Tested on: Rhizopus arrhizus
# Assay: Antifungal activity against Rhizopus oryzae MTCC 262 at 100 ug/ml
# Format: functional
# Settings: read-out: DIZ
row,SMILES,zone of inhibition at 100 µg/mL [mm]
1,Clc1ccccc1C(c1ccccc1)(c1ccccc1)n1ccnc1 [CLOTRIMAZOLE],33
2,CC1=C2C(=O)N(c3cc(C)on3)c3ccccc3C2N(c2ccc(Br)cc2)C(=S)N1c1cc(C)on1 (stereo unspecified),45
3,CC1=C2C(=O)N(c3cc(C)on3)c3ccccc3C2N(c2ccc(C)cc2)C(=S)N1c1cc(C)on1 (stereo unspecified),65
4,CC1=C2C(=O)N(c3cc(C)on3)c3ccccc3C2N(c2ccc(Cl)cc2)C(=S)N1c1cc(C)on1 (stereo unspecified),50
5,COc1cccc(N2C(=S)N(c3cc(C)on3)C(C)=C3C(=O)N(c4cc(C)on4)c4ccccc4C32)c1 (stereo unspecified),65

# Tested on: Fusarium verticillioides
# Assay: Antifungal activity against Fusarium moniliforme MTCC 1848 at 30 ug/ml
# Format: functional
# Settings: read-out: DIZ
row,SMILES,zone of inhibition at 30 µg/mL [mm]
1,CC1=C2C(=O)N(c3cc(C)on3)c3ccccc3C2N(c2ccc(Br)cc2)C(=S)N1c1cc(C)on1 (stereo unspecified),25
2,CC1=C2C(=O)N(c3cc(C)on3)c3ccccc3C2N(c2ccc(C)cc2)C(=S)N1c1cc(C)on1 (stereo unspecified),45
3,CC1=C2C(=O)N(c3cc(C)on3)c3ccccc3C2N(c2ccc(Cl)cc2)C(=S)N1c1cc(C)on1 (stereo unspecified),30
4,COc1cccc(N2C(=S)N(c3cc(C)on3)C(C)=C3C(=O)N(c4cc(C)on4)c4ccccc4C32)c1 (stereo unspecified),35

# Tested on: Fusarium verticillioides
# Assay: Antifungal activity against Fusarium moniliforme MTCC 1848 at 100 ug/ml
# Format: functional
# Settings: read-out: DIZ
row,SMILES,zone of inhibition at 100 µg/mL [mm]
1,Clc1ccccc1C(c1ccccc1)(c1ccccc1)n1ccnc1 [CLOTRIMAZOLE],25
2,CC1=C2C(=O)N(c3cc(C)on3)c3ccccc3C2N(c2ccc(Br)cc2)C(=S)N1c1cc(C)on1 (stereo unspecified),40
3,CC1=C2C(=O)N(c3cc(C)on3)c3ccccc3C2N(c2ccc(C)cc2)C(=S)N1c1cc(C)on1 (stereo unspecified),60
4,CC1=C2C(=O)N(c3cc(C)on3)c3ccccc3C2N(c2ccc(Cl)cc2)C(=S)N1c1cc(C)on1 (stereo unspecified),45
5,COc1cccc(N2C(=S)N(c3cc(C)on3)C(C)=C3C(=O)N(c4cc(C)on4)c4ccccc4C32)c1 (stereo unspecified),60

# Tested on: Curvularia lunata
# Assay: Antifungal activity against Curvularia lunata MTCC 2030 at 30 ug/ml
# Format: functional
# Settings: read-out: DIZ
row,SMILES,zone of inhibition at 30 µg/mL [mm]
1,CC1=C2C(=O)N(c3cc(C)on3)c3ccccc3C2N(c2ccc(Br)cc2)C(=S)N1c1cc(C)on1 (stereo unspecified),35
2,CC1=C2C(=O)N(c3cc(C)on3)c3ccccc3C2N(c2ccc(C)cc2)C(=S)N1c1cc(C)on1 (stereo unspecified),45
3,CC1=C2C(=O)N(c3cc(C)on3)c3ccccc3C2N(c2ccc(Cl)cc2)C(=S)N1c1cc(C)on1 (stereo unspecified),35
4,COc1cccc(N2C(=S)N(c3cc(C)on3)C(C)=C3C(=O)N(c4cc(C)on4)c4ccccc4C32)c1 (stereo unspecified),35

# Tested on: Curvularia lunata
# Assay: Antifungal activity against Curvularia lunata MTCC 2030 at 100 ug/ml
# Format: functional
# Settings: read-out: DIZ
row,SMILES,zone of inhibition at 100 µg/mL [mm]
1,Clc1ccccc1C(c1ccccc1)(c1ccccc1)n1ccnc1 [CLOTRIMAZOLE],35
2,CC1=C2C(=O)N(c3cc(C)on3)c3ccccc3C2N(c2ccc(Br)cc2)C(=S)N1c1cc(C)on1 (stereo unspecified),45
3,CC1=C2C(=O)N(c3cc(C)on3)c3ccccc3C2N(c2ccc(C)cc2)C(=S)N1c1cc(C)on1 (stereo unspecified),65
4,CC1=C2C(=O)N(c3cc(C)on3)c3ccccc3C2N(c2ccc(Cl)cc2)C(=S)N1c1cc(C)on1 (stereo unspecified),50
5,COc1cccc(N2C(=S)N(c3cc(C)on3)C(C)=C3C(=O)N(c4cc(C)on4)c4ccccc4C32)c1 (stereo unspecified),55

# Tested on: Culex quinquefasciatus
# Assay: Insecticidal activity against Culex quinquefasciatus 4th instar larvae
# Format: functional
# Settings: not given
row,SMILES,LC90 [µg/mL]
1,CC1=C2C(=O)N(c3cc(C)on3)c3ccccc3C2N(c2ccc(Br)cc2)C(=S)N1c1cc(C)on1 (stereo unspecified),1.8
2,CC1=C2C(=O)N(c3cc(C)on3)c3ccccc3C2N(c2ccc(C)cc2)C(=S)N1c1cc(C)on1 (stereo unspecified),2.41
3,CC1=C2C(=O)N(c3cc(C)on3)c3ccccc3C2N(c2ccc(Cl)cc2)C(=S)N1c1cc(C)on1 (stereo unspecified),4
4,COc1cccc(N2C(=S)N(c3cc(C)on3)C(C)=C3C(=O)N(c4cc(C)on4)c4ccccc4C32)c1 (stereo unspecified),2.41

# Same assay, conditions: Culex quinquefasciatus
row,SMILES,LC50 [µg/mL]
1,CC1=C2C(=O)N(c3cc(C)on3)c3ccccc3C2N(c2ccc(Br)cc2)C(=S)N1c1cc(C)on1 (stereo unspecified),0.88
2,CC1=C2C(=O)N(c3cc(C)on3)c3ccccc3C2N(c2ccc(C)cc2)C(=S)N1c1cc(C)on1 (stereo unspecified),0.85
3,CC1=C2C(=O)N(c3cc(C)on3)c3ccccc3C2N(c2ccc(Cl)cc2)C(=S)N1c1cc(C)on1 (stereo unspecified),1.01
4,COc1cccc(N2C(=S)N(c3cc(C)on3)C(C)=C3C(=O)N(c4cc(C)on4)c4ccccc4C32)c1 (stereo unspecified),1.25
